Source: article PMC7253177, “Gain of channel function and modified gating properties in TRPM3 mutants causing intellectual disability and epilepsy” (eLife, 2020)
Where a chain is given by its changes, count along the chain named.

Experiments:
WT human TRPM3 = biological target: T1, WT human TRPM3 (Homo sapiens, UniProt Q9HCF6); assay: Whole-cell patch clamp, HEK293T cells expressing WT hTRPM3; assay type: cell-based; settings: cells not co-transfected with the µ-opioid receptor; DAMGO 1 µM, PS 40 µM
T1 construct: expressed in transfected cells; host or cells: HEK293T
T1 sequence (Q9HCF6 1-1325 isoform Q9HCF6-10): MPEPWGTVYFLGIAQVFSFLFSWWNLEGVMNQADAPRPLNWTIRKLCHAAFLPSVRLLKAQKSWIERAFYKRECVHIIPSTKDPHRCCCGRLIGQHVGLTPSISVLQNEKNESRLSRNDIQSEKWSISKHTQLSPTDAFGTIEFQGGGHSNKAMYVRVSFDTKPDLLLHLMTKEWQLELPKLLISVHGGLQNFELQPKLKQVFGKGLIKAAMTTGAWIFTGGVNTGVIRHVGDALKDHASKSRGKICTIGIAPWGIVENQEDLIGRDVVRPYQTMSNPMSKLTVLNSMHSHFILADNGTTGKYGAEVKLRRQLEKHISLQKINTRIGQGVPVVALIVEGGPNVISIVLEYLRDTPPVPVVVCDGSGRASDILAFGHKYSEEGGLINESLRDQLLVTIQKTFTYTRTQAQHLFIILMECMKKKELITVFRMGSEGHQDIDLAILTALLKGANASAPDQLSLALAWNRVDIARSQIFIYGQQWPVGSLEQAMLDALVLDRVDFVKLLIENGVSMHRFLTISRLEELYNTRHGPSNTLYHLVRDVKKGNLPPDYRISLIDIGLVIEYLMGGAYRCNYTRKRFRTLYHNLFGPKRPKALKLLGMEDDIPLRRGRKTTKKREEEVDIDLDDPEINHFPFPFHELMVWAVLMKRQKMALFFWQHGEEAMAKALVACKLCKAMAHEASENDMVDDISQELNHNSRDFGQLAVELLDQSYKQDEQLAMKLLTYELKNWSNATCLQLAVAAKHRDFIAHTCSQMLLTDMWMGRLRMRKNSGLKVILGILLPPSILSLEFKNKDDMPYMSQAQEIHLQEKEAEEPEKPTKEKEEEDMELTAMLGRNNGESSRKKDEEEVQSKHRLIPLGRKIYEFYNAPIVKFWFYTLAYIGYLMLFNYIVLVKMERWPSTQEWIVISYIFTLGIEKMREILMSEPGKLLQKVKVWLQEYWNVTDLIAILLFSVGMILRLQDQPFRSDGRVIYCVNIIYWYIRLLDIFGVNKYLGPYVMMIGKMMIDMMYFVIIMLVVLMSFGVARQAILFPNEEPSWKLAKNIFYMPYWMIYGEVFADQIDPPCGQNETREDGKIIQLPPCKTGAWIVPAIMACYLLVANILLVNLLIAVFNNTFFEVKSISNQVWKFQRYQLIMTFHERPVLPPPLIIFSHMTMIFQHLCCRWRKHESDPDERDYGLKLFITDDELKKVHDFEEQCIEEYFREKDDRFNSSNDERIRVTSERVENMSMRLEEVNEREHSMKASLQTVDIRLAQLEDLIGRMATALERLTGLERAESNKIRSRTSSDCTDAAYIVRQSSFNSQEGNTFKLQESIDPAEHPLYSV
Method: (§1) HEK293T cells ([Graham et al., 1977]) were cultured as described previously ([Vriens et al., 2007]) and used up in passage number 14. HEK293T cells were tested for the lack of mycoplasma and transiently transfected with 2 µg of DNA using TransIT transfection reagent (Mirus) 36–48 hr before the measurements. In case of co-cultures a ratio of 1:1 between hTRPM3-YFP WT and mutants-YFP DNA was used.
(§2) Standard whole-cell patch-clamp recordings were performed with an EPC-10 amplifier and the PatchMasterPro Software (HEKA Elektronik, Lambrecht, Germany). Current measurements were performed at a sampling rate of 20 kHz and currents were digitally filtered at 2.9 kHz. In all measurements, 70% of the series resistance was compensated. The standard internal solution contained (in mM): 100 CsAsp, 45 CsCl, 10 EGTA, 10 HEPES, 1 MgCl2 (pH 7.2 with CsOH) or 140 potassium gluconate, 5 EGTA, 1 MgCl2, 10 HEPES and 2 NaATP (pH 7.3 with CsOH) for the measurements of Gβγ mediated inhibition and the standard extracellular solution contained (in mM): 150 NaCl, 1 MgCl2, 10 HEPES (pH 7.4 with NaOH). The standard patch pipette resistance was between 2 MΩ and 4 MΩ when filled with pipette solution. In experiments allowing Ca^2+-dependent desensitization of TRPM3, Mg^2+ was replaced by Ca^2+ in the extracellular solution, and Cs^+ was replaced by Na^+ in the pipette solution. […] The chemical ligands were dissolved in bath solution from a stock diluted in DMSO.

[1] = system: WT hTRPM3 co-transfected with µ-opioid receptors; assay: Whole-cell patch clamp, Gβγ-mediated inhibition of PS-activated currents, cells co-transfected with µ-opioid receptor and WT TRPM3; assay type: cell-based, human
Method: (§3) TRPM3 activity is inhibited upon activation of G protein-coupled receptors, via a mechanism that involves direct binding of the Gβγ of trimeric G-proteins to the channel ([Badheka et al., 2017]; [Dembla et al., 2017]; [Quallo et al., 2017]).
as §1
(§4) Standard whole-cell patch-clamp recordings were performed with an EPC-10 amplifier and the PatchMasterPro Software (HEKA Elektronik, Lambrecht, Germany). Current measurements were performed at a sampling rate of 20 kHz and currents were digitally filtered at 2.9 kHz. In all measurements, 70% of the series resistance was compensated. The standard internal solution contained (in mM): 100 CsAsp, 45 CsCl, 10 EGTA, 10 HEPES, 1 MgCl2 (pH 7.2 with CsOH) or 140 potassium gluconate, 5 EGTA, 1 MgCl2, 10 HEPES and 2 NaATP (pH 7.3 with CsOH) for the measurements of Gβγ mediated inhibition and the standard extracellular solution contained (in mM): 150 NaCl, 1 MgCl2, 10 HEPES (pH 7.4 with NaOH). […]

[2] = system: V990M hTRPM3 co-transfected with µ-opioid receptors; assay: Whole-cell patch clamp, Gβγ-mediated inhibition of PS-activated currents, cells co-transfected with µ-opioid receptor and V990M TRPM3; assay type: cell-based, human
Method: as §3, §1, §4

[3] = system: P1090Q hTRPM3 co-transfected with µ-opioid receptors; assay: Whole-cell patch clamp, Gβγ-mediated inhibition of PS-activated currents, cells co-transfected with µ-opioid receptor and P1090Q TRPM3; assay type: cell-based, human; settings: 1 µM DAMGO, PS 40 µM
Method: as §3, §1, §4

TRPM3 V990M mutant = biological target: T2, TRPM3 V990M mutant (Homo sapiens, UniProt Q9HCF6, V1015M); assay: Whole-cell patch clamp, HEK293T cells expressing V990M hTRPM3; assay type: cell-based; settings: La3+ 10 µM, PS 40 µM, ±150 mV
T2 construct: expressed in transfected cells; host or cells: HEK293T
T2 sequence (Q9HCF6 1-1325 isoform Q9HCF6-10 V990M): T1 sequence (Q9HCF6 1-1325 isoform Q9HCF6-10) with V990M
Method: as §1
All mutants were obtained by the standard PCR overlap extension method using hTRPM3 directly linked to YFP from pCAGGS/IRES-GFP vector ([Vriens et al., 2007]). Accuracy of all mutant sequences was verified by sequencing of the entire DNA constructs.
as §2

[4] = n = 5, read-out: IC50, DAMGO concentration for half-maximal inhibition of PS-activated currents

| Molecule | Effect on TRPM3 currents (WT human TRPM3) | Inhibition of PS-activated inward and outward currents ([1]; 1 µM DAMGO, PS 40 µM) | IC50 [1, 4] [nM] | Inhibition of PS-activated inward and outward currents ([2]; 1 µM DAMGO, PS 40 µM) | IC50 [2, 4] [nM] | Inhibition of PS-activated inward and outward currents [3] | Block of the inward component of the PS-activated current (TRPM3 V990M mutant) |
| --- | --- | --- | --- | --- | --- | --- | --- |
| [D-Ala^2, N-Me-Phe^4, Gly^5-ol]-enkephalin acetate salt [DAMGO] | without effect | complete and rapidly reversible inhibition | 4 ± 0.6 | only partly inhibited | 40 ± 10 | complete and rapidly reversible inhibition | – |
| [La+3] [La^3+, Lanthanum] | – | – | – | – | – | – | resistant to block |
